Reference: PubChem BioAssay AID330 (DTP/NCI, 2004)
Several values for one entry are separate records, joined by “and”; a condition that tells them apart may be missing. Equal values may be shown once. Toxic doses and inconclusive results are not listed. The calls were made as follows: active = survival T/C of 150% or more; inactive = T/C below 125% in these data.

Test system: P388 leukemia ip, CD2F1 mice, survival T/C
Experiment: NCI In Vivo Anticancer Drug Screen. Data for tumor model P388 Leukemia (intraperitoneal) in CD2F1 (CDF1) mice
Conditions: endpoint: median survival time, higher = longer survival
Method in brief: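 Mice carrying the transplanted tumor received test compound or vehicle. Survival was recorded in each group, and the value is the treated-group measurement divided by that of the vehicle-treated control group.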

[1] = dose: 25.0 mg/kg/injection, schedule: Q01DX009 (ip), vehicle: other
[2] = dose: 50.0 mg/kg/injection, schedule: Q01DX009 (ip), vehicle: other
[3] = dose: 100.0 mg/kg/injection, schedule: Q01DX009 (ip), vehicle: other
[4] = dose: 200.0 mg/kg/injection, schedule: Q01DX009 (ip), vehicle: other
[5] = dose: 60.0 mg/kg/injection, schedule: Q01DX005 (ip), vehicle: saline with Tween-80
[6] = dose: 120.0 mg/kg/injection, schedule: Q01DX005 (ip), vehicle: saline with Tween-80
[7] = dose: 15.0 mg/kg/injection, schedule: Q01DX005 (ip), vehicle: Klucel (hydroxypropylcellulose) (HPC)
[8] = dose: 60.0 mg/kg/injection, schedule: Q01DX005 (ip), vehicle: Klucel (hydroxypropylcellulose) (HPC)
[9] = dose: 120.0 mg/kg/injection, schedule: Q01DX005 (ip), vehicle: Klucel (hydroxypropylcellulose) (HPC)
[10] = dose: 240.0 mg/kg/injection, schedule: Q01DX005 (ip), vehicle: Klucel (hydroxypropylcellulose) (HPC)
[11] = dose: 50.0 mg/kg/injection, schedule: Q01DX005 (ip), vehicle: Klucel (hydroxypropylcellulose) (HPC)
[12] = dose: 100.0 mg/kg/injection, schedule: Q01DX005 (ip), vehicle: Klucel (hydroxypropylcellulose) (HPC)
[13] = dose: 200.0 mg/kg/injection, schedule: Q01DX005 (ip), vehicle: Klucel (hydroxypropylcellulose) (HPC)
[14] = dose: 50.0 mg/kg/injection, schedule: Q01DX009 (ip), vehicle: saline with Tween-80
[15] = dose: 100.0 mg/kg/injection, schedule: Q01DX009 (ip), vehicle: saline with Tween-80
[16] = dose: 50.0 mg/kg/injection, schedule: Q01DX005 (ip), vehicle: saline with Tween-80
[17] = dose: 100.0 mg/kg/injection, schedule: Q01DX005 (ip), vehicle: saline with Tween-80
[18] = dose: 50.0 mg/kg/injection, schedule: Q04DX003 (ip), vehicle: saline with Tween-80

Measured: T/C

N#CCCNc1cc(O)c2c(c1O)C(=O)c1ccccc1C2=O
inactive: [1] 88 % of control | [2] 100 % of control | [3] 95 % of control | [4] 90 % of control

CCOc1cnco1
inactive: dose: 100.0 mg/kg/injection, schedule: Q04DX002 (ip), vehicle: saline 99 % of control | dose: 200.0 mg/kg/injection, schedule: Q04DX002 (ip), vehicle: saline 100 % of control | dose: 400.0 mg/kg/injection, schedule: Q04DX002 (ip), vehicle: saline 112 % of control

NNC(=O)CNc1ccc(F)c(Cl)c1
inactive: dose: 15.0 mg/kg/injection, schedule: Q01DX005 (ip), vehicle: saline with Tween-80 99 % of control | dose: 30.0 mg/kg/injection, schedule: Q01DX005 (ip), vehicle: saline with Tween-80 96 % of control | [5] 94 % of control and 97 % of control | [6] 104 % of control

c1csc(-c2[nH]nc3c2CCc2ccccc2-3)c1
inactive: dose: 3.75 mg/kg/injection, schedule: Q01DX005 (ip), vehicle: Klucel (hydroxypropylcellulose) (HPC) 122 % of control | dose: 7.5 mg/kg/injection, schedule: Q01DX005 (ip), vehicle: Klucel (hydroxypropylcellulose) (HPC) 114 % of control | [7] 114 % of control

O=C(O)CCCc1ccc(N(CCO)CCO)cc1
inactive: dose: 100.0 mg/kg/injection, schedule: Q04DX003 (ip), vehicle: saline 114 % of control | dose: 200.0 mg/kg/injection, schedule: Q04DX003 (ip), vehicle: saline 109 % of control | dose: 400.0 mg/kg/injection, schedule: Q04DX003 (ip), vehicle: saline 103 % of control

C[N+](C)(C)CCC(=O)c1ccc(Cl)cc1
inactive: dose: 3.13 mg/kg/injection, schedule: Q01DX009 (ip), vehicle: saline 109 % of control | dose: 6.25 mg/kg/injection, schedule: Q01DX009 (ip), vehicle: saline 96 % of control | dose: 12.5 mg/kg/injection, schedule: Q01DX009 (ip), vehicle: saline 103 % of control

CCC[C@H]1[C@H](CCC)[C@@]2(OC(=O)C3=C2CCC=C3)[C@]12OC(=O)C1=C2CCC=C1
inactive: dose: 11.25 mg/kg/injection, schedule: Q01DX005 (ip), vehicle: Klucel (hydroxypropylcellulose) (HPC) 98 % of control | dose: 22.5 mg/kg/injection, schedule: Q01DX005 (ip), vehicle: Klucel (hydroxypropylcellulose) (HPC) 90 % of control | dose: 45.0 mg/kg/injection, schedule: Q01DX005 (ip), vehicle: Klucel (hydroxypropylcellulose) (HPC) 88 % of control | dose: 90.0 mg/kg/injection, schedule: Q01DX005 (ip), vehicle: Klucel (hydroxypropylcellulose) (HPC) 100 % of control

O=c1oc(NC2CCCCC2)nc2ccccc12
inactive: [8] 93 % of control | [9] 92 % of control | [10] 92 % of control

COC(=O)[CH2][Ge]([c]1ccccc1)[c]1ccccc1.COC(=O)[CH2][Ge]([c]1ccccc1)[c]1ccccc1
inactive: [7] 97 % of control | dose: 30.0 mg/kg/injection, schedule: Q01DX005 (ip), vehicle: Klucel (hydroxypropylcellulose) (HPC) 89 % of control | [8] 89 % of control

COc1cc(C(=O)N2C3C4CCC(C)(OC4(C)C)C32)cc(OC)c1OC (stereo not drawn)
inactive: [11] 95 % of control | [12] 97 % of control | [13] 94 % of control

Cc1cccc2c(/C=C/c3ccc(N(C)C)cc3)ccnc12
inactive: dose: 25.0 mg/kg/injection, schedule: Q01DX009 (ip), vehicle: Klucel (hydroxypropylcellulose) (HPC) 105 % of control | dose: 50.0 mg/kg/injection, schedule: Q01DX009 (ip), vehicle: Klucel (hydroxypropylcellulose) (HPC) 105 % of control and 117 % of control | dose: 100.0 mg/kg/injection, schedule: Q01DX009 (ip), vehicle: Klucel (hydroxypropylcellulose) (HPC) 117 % of control | dose: 200.0 mg/kg/injection, schedule: Q01DX009 (ip), vehicle: Klucel (hydroxypropylcellulose) (HPC) 106 % of control

Nc1ccc2c(n1)NCC/C2=N\Nc1ccc(F)cc1
inactive: [14] 105 % of control | [15] 105 % of control

CC(C)(C)N1OC2(c3ccccc3)OC3N(C(C)(C)C)OC4(c5ccccc5)OC1C2(c1ccccc1)C34c1ccccc1 (stereo not drawn)
inactive: [5] 111 % of control | [6] 87 % of control | dose: 240.0 mg/kg/injection, schedule: Q01DX005 (ip), vehicle: saline with Tween-80 86 % of control

CN1CCc2cc3c(cc2C1O)OCO3 (stereo not drawn)
inactive: [16] 100 % of control | [17] 110 % of control

CCOC(=O)/C=C(\NC1CC(OC2C[C@](O)(C(C)=O)Cc3c(O)c4c(c(O)c32)C(=O)c2c(OC)cccc2C4=O)OC(C)C1O)C(=O)OCC (stereo partly drawn)
inactive: dose: 6.25 mg/kg/injection, schedule: Q04DX003 (ip), vehicle: saline with Tween-80 106 % of control | dose: 12.5 mg/kg/injection, schedule: Q04DX003 (ip), vehicle: saline with Tween-80 113 % of control | dose: 25.0 mg/kg/injection, schedule: Q04DX003 (ip), vehicle: saline with Tween-80 105 % of control | [18] 124 % of control

CC(C)(C)SC(=O)C1(C(O)c2ccccc2)CC1 (stereo not drawn)
inactive: dose: 100.0 mg/kg/injection, schedule: Q04DX003 (ip), vehicle: Klucel (hydroxypropylcellulose) (HPC) 106 % of control | dose: 200.0 mg/kg/injection, schedule: Q04DX003 (ip), vehicle: Klucel (hydroxypropylcellulose) (HPC) 115 % of control | dose: 400.0 mg/kg/injection, schedule: Q04DX003 (ip), vehicle: Klucel (hydroxypropylcellulose) (HPC) 112 % of control

COc1cccc2c1C(=O)c1c(O)c3c(c(O)c1C2=O)C[C@@](O)(/C(C)=N/NC(N)=S)C[C@@H]3OC1CC(N)C(O)C(C)O1 (stereo partly drawn)
inactive: dose: 3.13 mg/kg/injection, schedule: Q04DX003 (ip), vehicle: water 108 % of control | dose: 6.25 mg/kg/injection, schedule: Q04DX003 (ip), vehicle: water 109 % of control | dose: 12.5 mg/kg/injection, schedule: Q04DX003 (ip), vehicle: water 112 % of control and 117 % of control | dose: 25.0 mg/kg/injection, schedule: Q04DX003 (ip), vehicle: water 117 % of control and 123 % of control | dose: 50.0 mg/kg/injection, schedule: Q04DX003 (ip), vehicle: water 117 % of control and 122 % of control
active: dose: 200.0 mg/kg/injection, schedule: Q04DX003 (ip), vehicle: water 155 % of control

S=c1sc2ccccc2n1CN1CCOCC1
inactive: dose: 25.0 mg/kg/injection, schedule: Q01DX005 (ip), vehicle: saline with Tween-80 107 % of control | [16] 104 % of control and 114 % of control | [17] 121 % of control and 124 % of control

Cc1ccnc(NS(=O)(=O)c2ccc(NC(=O)Nc3cccc(Cl)c3)cc2)n1
inactive: [11] 86 % of control | [12] 87 % of control | [13] 89 % of control

O=C(NC(CCS(=O)(=O)NO)C(=O)OCc1ccccc1)OCc1ccccc1 (stereo not drawn)
inactive: dose: 12.5 mg/kg/injection, schedule: Q01DX009 (ip), vehicle: other 100 % of control | [1] 95 % of control | [2] 109 % of control | [3] 95 % of control | [4] 92 % of control

O=C1NC(O)c2cccc(Cl)c2O1 (stereo not drawn)
inactive: [16] 102 % of control | [17] 102 % of control | dose: 200.0 mg/kg/injection, schedule: Q01DX005 (ip), vehicle: saline with Tween-80 107 % of control

CN(C)C=C1C(=O)CCCC1=O
inactive: dose: 60.0 mg/kg/injection, schedule: Q01DX005 (ip), vehicle: saline 105 % of control | dose: 120.0 mg/kg/injection, schedule: Q01DX005 (ip), vehicle: saline 117 % of control

COc1ccc2c(c1)CCC1=C2CCC2(C)C1=CCS2(=O)=O (stereo not drawn)
inactive: [8] 105 % of control | [9] 90 % of control | [10] 97 % of control

O=C(/C=C/c1ccc(Cl)cc1)c1ccccc1
inactive: [14] 105 % of control | [15] 103 % of control | dose: 200.0 mg/kg/injection, schedule: Q01DX009 (ip), vehicle: saline with Tween-80 92 % of control

S=c1nc2ccccn2c(=S)n1-c1ccccn1
inactive: [18] 95 % of control | dose: 100.0 mg/kg/injection, schedule: Q04DX003 (ip), vehicle: saline with Tween-80 115 % of control

CC(=O)Nc1nnc(-c2coc3ccccc3c2=O)s1
inactive: [5] 91 % of control | [6] 91 % of control
